Test results taken from paper PMC8072890, “Aminoalkylamides of Eremomycin Exhibit an Improved Antibacterial Activity” (Pharmaceuticals, 2021).

Key:
Assay type in all cases: cell-based
E. faecalis 559 = details: sensitive strain; broth dilution micromethod, CLSI; modal values (or range) of 3–5 independent tests
Text: (§1) The antimicrobial activity of semisynthetic derivatives of eremomycin 4a–q was studied in comparison with vancomycin on a wide panel of Gram-positive bacteria sensitive (Staphylococcus aureus ATCC 29213, S. aureus R-2, S. haemoliticus 602, S. pneumoniae ATCC 6305, Enteroccus faecium 4, and E. faecalis 559) and resistant to vancomycin (S. aureus 3797, S.aureus 3798, E. faecium 2, E. faecium 3576, E. faecalis 9, E. faecalis 583, and E. gallinarum BΠ 4147), information about the strains given in Table S3. The minimum microbial inhibitory concentration (MIC) for the test compounds was determined by the broth dilution micromethod according to CLSI guidelines, and vancomycin and a standard strain S. aureus ATCC 29213 used as controls (Figure 2 and Tables S4 and S5).
(§2) Table S4. Antibacterial activity of vancomycin and derivatives 4a–q against sensitive Gram-positive bacteria.
(§3) Strain/MIC (Minimum inhibitory concentration, μg/ml)*
(§4) Compound m n R S.aureus АТСС S.aureus R-2 S.haemoliticus S.pneumoniae АТСС E. faecium 4 E. faecalis 559
(§5) *MICs are presented as modal values for 3–5 independently replicated MIC tests for each strain and for the antibiotics. In the range of the
(§6) obtained MIC values, the obtained modal values are highlighted in bold.

S. haemoliticus 602 = details: sensitive strain; broth dilution micromethod, CLSI; modal values (or range) of 3–5 independent tests
Text: as §1, §2, §3, §4, §5, §6

[1] = tested on: Staphylococcus aureus ATCC 29213; details: vancomycin-sensitive control strain; broth dilution micromethod, CLSI; modal values (or range) of 3–5 independent tests
Text: as §1, §2, §3, §4, §5, §6

S. aureus R-2 = details: sensitive strain; broth dilution micromethod, CLSI; modal values (or range) of 3–5 independent tests
Text: as §1, §2, §3, §4, §5, §6

E. faecium 4 = details: sensitive strain; broth dilution micromethod, CLSI; modal values (or range) of 3–5 independent tests
Text: as §1, §2, §3, §4, §5, §6

S. aureus 3797 = details: strain resistant to vancomycin; broth dilution micromethod, CLSI; modal values (or range) of 3–5 independent tests
Text: as §1
(§7) Table S5. Antibacterial activity of vancomycin and derivatives 4a–q against resistant Gram-positive bacteria.
(§8) Strain/MIC (minimum inhibitory concentration; μg/ml)
(§9) Compound m n R S.aureus 3797 S.aureus 3798 E. faecium 2 E. faecium 3576 E. faecalis 9 E. faecalis 583 E. gallinarum
(§10) *MICs are presented as modal values for 3–5 independently replicate MIC tests for each strain and for the antibiotics. In the range of the obtained MIC
(§11) values, the obtained modal values are highlighted in bold.

E. faecium 2 = details: strain resistant to vancomycin; broth dilution micromethod, CLSI; modal values (or range) of 3–5 independent tests
Text: as §1, §7, §8, §9, §10, §11

E. faecium 3576 = details: strain resistant to vancomycin; broth dilution micromethod, CLSI; modal values (or range) of 3–5 independent tests
Text: as §1, §7, §8, §9, §10, §11

S.aureus 3798 = details: strain resistant to vancomycin; broth dilution micromethod, CLSI; modal values (or range) of 3–5 independent tests
Text: as §1, §7, §8, §9, §10, §11

E. faecalis 9 = details: strain resistant to vancomycin; broth dilution micromethod, CLSI; modal values (or range) of 3–5 independent tests
Text: as §1, §7, §8, §9, §10, §11

E. faecalis 583 = details: strain resistant to vancomycin; broth dilution micromethod, CLSI; modal values (or range) of 3–5 independent tests
Text: as §1, §7, §8, §9, §10, §11

E. gallinarum BΠ 4147 = details: strain resistant to vancomycin; broth dilution micromethod, CLSI; modal values (or range) of 3–5 independent tests
Text: as §1, §7, §8, §9, §10, §11

S. pneumoniae ATCC 6305 = assay: MIC, broth dilution micromethod (CLSI); details: sensitive strain, modal values (or range) of 3–5 independent tests
Text: as §1, §2, §3, §4, §5, §6

Substance | MIC E. faecalis 559 (E. faecalis 559) | MIC S.haemoliticus 602 (S. haemoliticus 602) | MIC S.aureus ATCC 29213 [1] | MIC S.aureus R-2 (S. aureus R-2) | MIC E. faecium 4 (E. faecium 4) | MIC S.aureus 3797 (S. aureus 3797) | MIC E. faecium 2 (E. faecium 2) | MIC E. faecium 3576 (E. faecium 3576) | MIC S.aureus 3798 (S.aureus 3798) | MIC E. faecalis 9 (E. faecalis 9) | MIC E. faecalis 583 (E. faecalis 583) | MIC E. gallinarum ВП 4147 (E. gallinarum BΠ 4147) | MIC S.pneumoniae ATCC 6305 (S. pneumoniae ATCC 6305)
Eremomycin N-(2-((4-trifluoromethylbenzyl)amino)ethyl)amide [4q] | 2 µg/mL | 0.5 µg/mL | 1 µg/mL | 2 µg/mL | 1 µg/mL | 2 µg/mL | 1 to 2 µg/mL | 4 µg/mL | 2 µg/mL | 0.25 µg/mL | 4 µg/mL | 4 µg/mL | 0.01 µg/mL
Eremomycin N-(2-((2-fluorobenzyl)amino)propyl)amide [4f] | 0.25 to 0.5 µg/mL | 0.25 to 0.5 µg/mL | 0.125 µg/mL | 0.03 µg/mL | 0.25 µg/mL | 0.5 µg/mL | 1 µg/mL | 1 µg/mL | 2 µg/mL | 0.06 µg/mL | 1 µg/mL | 0.5 µg/mL | 0.03 µg/mL
Eremomycin N-(2-((2,4-dichlorobenzyl)amino)ethyl)amide [4n] | 1 µg/mL | 0.25 µg/mL | 0.5 µg/mL | 0.25 to 0.5 µg/mL | 1 µg/mL | 1 µg/mL | 2 µg/mL | 2 µg/mL | 2 µg/mL | 0.25 µg/mL | 2 µg/mL | 2 µg/mL | 0.03 to 0.06 µg/mL
Eremomycin N-(2-(benzylamino)ethyl)amide [4a] | 0.25 µg/mL | 0.5 µg/mL | 0.25 µg/mL | 0.03 µg/mL | 0.25 to 0.5 µg/mL | 0.5 µg/mL | 1 µg/mL | 1 to 2 µg/mL | 0.5 to 1 µg/mL | 0.06 µg/mL | 0.5 µg/mL | 1 µg/mL | 0.25 µg/mL
Eremomycin N-(2-((3,4-dichlorobenzyl)amino)ethyl)amide [4o] | 2 µg/mL | 0.5 µg/mL | 1 µg/mL | 1 µg/mL | 1 µg/mL | 2 µg/mL | 2 µg/mL | 2 µg/mL | 1 to 2 µg/mL | 0.25 to 0.5 µg/mL | 2 µg/mL | 2 µg/mL | 0.5 µg/mL
